# Assay results from patent US5843481A, “Treatment of proliferative disorders, metastasaes, and drug resistant tumors with vanadate compounds and derivatives or analogues thereof” (priority 1994, dated 1998).
# Legend:
# [1] = tested on: jun; assay: Northern blot analysis of jun mRNA expression in chondrocytes; type: cell-based, bovine
# From the text: (§1) The cytokine interleukin 1 (IL 1) has been used to identify the intermediate second messengers which regulate the expression of fos and jun.
# Although IL 1 stimulated superoxide production, it was not known whether IL 1 induced fos and jun expression was dependent on the production of superoxides. In order to elucidate this possibility, the effect of DPI on fos and jun mRNA levels induced by IL 1 was investigated. RNA from chondrocytes treated with IL 1 in the presence and absence of DPI were analyzed by Northern blot analysis using either fos or collagenase cDNA probes. […] Similar data has been obtained for IL 1 induced jun expression. Furthermore, inhibition of fos and jun expression by DPI was sufficient to suppress IL 1 induced and constitutive collagenase expression.
# (§2) Bovine articular chondrocytes were isolated and plated as previously described (Kandel R. A. et al. Biochim. Biophys. Acta. 1053, 130-134, 1990). In order to determine the effect of orthovanadate on IL 1 and PMA (phorbol ester) induced responses, chondrocytes were incubated with orthovanadate (100 μM) for 2 hours before stimulation with IL 1 (10 ng/ml) or PMA ([…]). collagenase production was determined by incubating chondrocytes for 24 hours with IL 1 or PMA and the cell conditioned medium was assayed for collagenase activity using an ELISA procedure as described previously (Kandel et al. supra) PLA2 activity was measured by incorporating ^3 H-arachidonic acid (^3 H-AA) into the cells and then incubating the cells with medium containing 1 mg/ml BSA, either alone or in the presence of IL 1 or PMA, for 10 min. as previously described (Conquer, J. A. […], Biochim. Biophys. Acta. 1134, 1-6). The amount of ^3 H-AA liberated into the supernatant was determined. To measure PGE2 production, chondrocytes were incubated for 6 hours in Ham's F12 medium, either alone or with IL 1 or PMA. The supernatant was analyzed by RIA using an antibody specific for PGE2 (Dr. S. A. Jones, Mount Sinai Hospital, Toronto, Can.). In order to examine the expression of c-fos and c-jun, chondrocytes were incubated for 1 hour in the presence of IL-1, PMA or AA (3 μM). Chondrocytes were washed in PBS and the total RNA extracted as previously described (Cruz. et al, 1991, Biochem. J. 277, 327-330). RNA samples were run on formaldehyde agarose gels and transferred to nylon membrane for northern analysis using cDNA probes for c-fos and c-jun.
# [2] = tested on: KB8, KB8-5 and KB85-11 cells; assay: Viability of drug resistant ovarian cancer cell lines; type: cell-based
# From the text: The effect of orthovanadate on three ovarian cancer cell lines, KB8, KB8-5 and KB85-11, which have increasing drug resistance, respectively, relative to the parent cell line, KB3-1 was compared. These drug resistant cell lines are not killed by several classes of chemotherapeutic agents such as colchicine, vinblastine and doxorubicin. […] The cells were harvested and the number of viable cells determined.
# [3] = tested on: non-proliferating chondrocytes; assay: Viability of non-proliferating chondrocytes (high cell density); type: cell-based, bovine; details: 0-50 μM, 48 hours; FIG. 6
# Protocol: As described in example 1, orthovanadate inhibited fos, jun and collagenase expression. If fos and jun expression are required for cellular proliferation, then orthovanadate should inhibit chondrocyte proliferation. In order to compare the effect of orthovanadate on non-proliferating and proliferating chondrocytes, chondrocytes were plated at both high cell density (2×10^6 to 4×10^6 cells/per well on a six well plate) (nonproliferating) and at a lower cell density (5×10^5 to 1×10^6 cells/per well on a six well plate) (proliferating) and then maintained for 48 hours. The cells were then incubated in media (HAMS F12) containing 0-50 μM Orthovanadate for an additional 48 hours. The cells were harvested and the number of viable cells determined.
# [4] = tested on: MDAY-D2 and HTB14 cells; assay: Viability of proliferating tumor cell lines; type: cell-based, mouse (MDAY-D2); human (HTB14)
# Protocol: Fos and jun activity are also required for cellular proliferation in many tumor cell lines. Accordingly, the effect of orthovanadate on adherent cells and cell suspensions were examined. MDAY-D2 (a mouse lymphoid cell line grown in suspension) and HTB14 cells (an adherent human primary astrocytoma cell line) were incubated in media containing 0-50 μM orthovanadate for 48 hours. The cells were harvested and the number of viable cells determined.
# [5] = tested on: MDAY-D2; assay: MDAY-D2 tumor growth in mice, combination therapy, Example 7; type: in vivo
# Protocol: Twenty mice were injected subcutaneously with 2×10^5 cells on Day 1. At day 4, the mice were divided into four groups of five mice. Group one (control) received subcutaneous injections of 50 μl of water. Group two received daily intraperitoneal injections of 50 μl of 250 mM N-acetylcysteine. Group three received daily subcutaneous injections of 50 μl of 10 mg/ml of orthovanadate. Group four received daily intraperitoneal injections of 50 μl of […] N-acetylcysteine and 20 minutes later received 50 μl of subcutaneous injection of 50 μl of 10 mg/ml of orthovanadate. On day 10 the treatment was stopped. The animals were sacrificed on Day 13 and analyzed for tumor growth.
# [6] = tested on: fos; assay: Northern blot analysis of fos mRNA expression in chondrocytes; type: cell-based, bovine
# Protocol: as §1
# In order to elucidate this possibility, the effect of DPI on fos and jun mRNA levels induced by IL 1 was investigated. RNA from chondrocytes treated with IL 1 in the presence and absence of DPI were analyzed by Northern blot analysis using either fos or collagenase cDNA probes.
# Since superoxides are rapidly converted to hydrogen peroxide in the cell by superoxide dismutase, whether hydrogen peroxide could mimic the effect of IL 1 in the induction of fos expression was investigated. RNA was extracted from chondrocytes (Kandel et al. supra) treated with H2 O2 for 30, 60 and 90 minutes and examined by Northern blot analysis using a fos cDNA probe.
# as §2
# Cells were also incubated as described above with 20 mM N-acetylcyateine for 20 min. and then incubated with IL 1 for an additional 1 or 12 hours. The RNA was extracted and examined by Northern blot analysis using cDNA probes for c-fos and collagenase.
# [7] = orthovanadate 100 μM, FIGS. 4 and 18
structure (smiles),measurement,setting,value
[O]=[V]([O-])([O-])[O-] [orthovanadate],"IL 1, PMA and AA induced c-jun expression",[1]; [7],completely inhibited
same,jun expression in response to factors such as IL 1 or arachidonic acid,[1]; summary statement,completely inhibit
same,effectiveness in killing drug resistant cell lines,"[2]; 0-50 μM, 48 hours, FIG. 10",equally effective
same,cell death by three days of administration,[2]; three days,most of the cells had died
same,toxicity to chondrocytes plated at high cell density (non-proliferating),[3],did not effect
same,time by which cell death was observed,[4],≤ 24 h
same,"cell death, concentration dependence","[4]; 0-50 μM, 48 hours, FIG. 7",concentration dependent increase in cell death
same,cell death completeness,[4]; within 3 days of continuous treatment,over 98%
same,animals that died during the experiment,"[5]; 10 mg/ml s.c. daily, group of five mice",One orthovanadate treated animal died
same,animals without detectable tumors,"[5]; day 13, FIG. 14, orthovanadate: of four mice, combination: of five",two had no detectable tumors
same,"IL 1, PMA and AA induced c-fos expression",[6]; [7],completely inhibited
same,fos expression in response to factors such as IL 1 or arachidonic acid,[6]; summary statement,completely inhibit
